Measured values from paper PMC10279527, “Structural basis of metabolite transport by the chloroplast outer envelope channel OEP21” (Nature Structural & Molecular Biology, 2023).
“And” between values parts separate entries of the source, which are not always exact repeats. Equal entries are not always repeated. Where two headings read alike, the source gives them in different places.

Experiments:
OEP21 [1] = biological target: T1, OEP21 (Pisum sativum, UniProt Q9SM57); test: CD-detected thermal melting of OEP21 in presence of metabolites; assay type: binding, garden pea; design: made in house; settings: for Melting point: ED Fig. 4a, OEP21 with 0.5 mM metabolite, CD at 215 nm, Apo 58.5; for raw CD / rel CD: 500 uM
OEP21 [2] = biological target: T1, OEP21; test: Isothermal titration calorimetry (ITC) of OEP21 with metabolites; assay type: binding, garden pea; design: made in house; settings: for binding affinity for OEP21 (in words): ITC or FP; for fold increase in Kd: individual determination KD1; for fold increase in Kd / fold increase in Kd, mean values: relative to ATP pH7
[3] = system: OEP21 variants (single point mutations, ΔL5); test: Fluorescence polarization binding of MANT-ATP to OEP21 variants;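 also: KD obtained by fitting fluorescence polarization data to a one-site binding model, each experiment run in triplicate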; design: species or system garden pea; settings: FP with MANT-ATP, Fig. 3e; 14 point variants and ΔL5
OEP21 [4] = biological target: T1, OEP21; test: Trypsin cleavage of recombinant OEP21 in liposomes; design: made in house; species or system garden pea; settings: 10 µM OEP21 in liposomes; 5 mM metabolite
Procedure: Sample aliquots were quenched by addition of 1 mM PMSF at the indicated time points and were analyzed by SDS–PAGE.

OEP21 [5] = biological target: T1, OEP21; test: Amide hydrogen exchange NMR (CLEANEX) of OEP21 L5; design: made in house; species or system garden pea; settings: 2 mM ATP or 5 mM GAP; 303 K, pH 6.0
[6] = ITC of ATP, GAP or phosphate with magnesium; assay type: binding; settings: 10 mM HEPES pH7.0, 20 mM NaCl, read-out: KD for Mg^2+
Procedure: ITC experiments were performed with a MicroCal PEAQ-ITC instrument (Malvern Panalytical) at 25 °C in 10 mM HEPES pH 7.0, 20 mM NaCl, 0.5 mM EDTA, 1 mM DTT, 50 mM LDAO. […] Curve fitting and data analysis were done with the Malvern PEAQ-ITC software.
(a) (left) 2D-[^15N,^1H]-TROSY NMR spectra of 400 µM ^2H,^15N-labeled OmpX in LDAO micelles in 20 mM sodium phosphate, pH6.0, 50 mM NaCl, 0.5 mM EDTA and the indicated concentrations of D-GAP at 30 °C and 1.2 GHz magnetic field. (right) 2D-projections along the ^1H dimension of the 2D-spectra shown on (left). […] (right) Relative NMR peak intensities derived from the data in (left) and (middle). Buffer: 10 mM Na-phosphate pH7.0, 20 mM NaCl, 7% (v/v) D2O. […] (right) 150 mM MgCl2 was titrated into 15 mM potassium phosphate (Pi). Buffer conditions for all experiments were: 10 mM HEPES pH7.0, 20 mM NaCl.

OEP21 wt [7] = biological target: T2, OEP21 wt (Pisum sativum, UniProt Q9SM57); test: Fluorescence polarization (FP) binding of MANT-ATP (or MANT-GMPPNP) to OEP21-WT, also at varied NaCl and MgCl2; design: species or system garden pea; settings: FP
T2 construct: made in house
Procedure: (§1) FP assays were performed on a spectrofluorometer FP-8300 (Jasco) equipped with a water bath cooling system MCM-100 (Jasco). […] A buffer containing no EDTA was used when MgCl2 was present. […] KD values were derived by fitting the data to a one-site binding model. […] All FP experiments were performed as triplicates.

OEP21 wt [8] = biological target: T2, OEP21 wt; test: SEC metabolite translocation assay with OEP21 WT proteoliposomes;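 as to all read-outs here: control is liposomes reconstituted without protein, prepared alongside. Molecule content inside liposomes measured after Triton X-100 disruption. PD10 SEC runs done with or without ATP and/or MgCl2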; assay type: biochemical, garden pea; settings: for passage through the OEP21 channel (in words): proteoliposomes, SEC, deadtime ~4 min; for Relative content (% of mean Control): Fig. 4f, WT proteoliposomes, molecules of increasing molecular weight
OEP21 wt [9] = biological target: T2, OEP21 wt; test: NMR titrations (2D-[15N,1H]-TROSY) of OEP21 with metabolites; assay type: binding, garden pea
OEP21 wt [10] = biological target: T2, OEP21 wt; test: FP competition with preformed MANT-ATP/OEP21-WT complex; assay type: binding, garden pea; settings: read-out: IC50 (dissociation of MANT-ATP); OEP21-WT; 1 µM MANT-ATP, 1 µM protein
Procedure: as §1

Compound: O=C(O)[C@H](O)COP(=O)(O)O [3PGA]
- Melting point (OEP21 [1]): 58.78 ｡C

Compound: Nc1ncnc2c1ncn2[C@@H]1O[C@H](COP(=O)(O)OP(=O)(O)O)[C@@H](O)[C@H]1O [ADP]
- Melting point (OEP21 [1]): 59.2 ｡C
- binding affinity for OEP21 (in words) (OEP21 [2]; Fig. 3c): markedly reduced
- fold increase in Kd (OEP21 [2]): 10.8
- fold increase in Kd, mean values (OEP21 [2]): 10.8

Compound: Nc1ncnc2c1ncn2[C@@H]1O[C@H](COP(=O)(O)O)[C@@H](O)[C@H]1O [AMP]
- Melting point (OEP21 [1]): 59.12 ｡C
- binding affinity for OEP21 (in words) (OEP21 [2]; Fig. 3c): no binding could be detected
- Fold increase in KD (OEP21 [2]; Fig. 3c, n.b. = no binding could be detected by ITC): n.b.
- fold increase in Kd, mean values (OEP21 [2]): 0

Compound: Nc1ncnc2c1ncn2C1OC(COP(=O)(O)OP(=O)(O)OP(=O)(O)O)C(O)C1O (centres unmarked) [ATP]
- deviation of KD of OEP21 variants from the wild-type value [3]: ≤ 50%
- effect on trypsin digestion of L5 (in words) (OEP21 [4]): slightly protected L5 from proteolytic digestion
- raw CD (OEP21 [1]; 21 °C): -26.3487
- raw CD (OEP21 [1]; 58 °C): -23.5155
- raw CD (OEP21 [1]; 63 °C): -19.1017
- raw CD (OEP21 [1]; 66 °C): -5.813
- rel CD (OEP21 [1]; 66 °C): 0.1482
- rel CD (OEP21 [1]; 68 °C): 0.08235
- raw CD (OEP21 [1]; 69 °C): -3.142
- raw CD (OEP21 [1]; 70 °C): -4.096
- raw CD (OEP21 [1]; 71 °C): -2.84
- raw CD (OEP21 [1]; 71.5 °C): -3.658
- raw CD (OEP21 [1]; 74 °C): -2.072
- rel CD (OEP21 [1]; 76 °C): 0.01626
- raw CD (OEP21 [1]; 77 °C): -2.742
- rel CD (OEP21 [1]; 77 °C): 0.01867
- raw CD (OEP21 [1]; 79 °C): -1.936
- raw CD (OEP21 [1]; 79.5 °C): -2.866
- raw CD (OEP21 [1]; 80 °C): -3
- raw CD (OEP21 [1]; 82 °C): -1.776
- rel CD (OEP21 [1]; 82 °C): -0.02212
- raw CD (OEP21 [1]; 83.5 °C): -1.529
- raw CD (OEP21 [1]; 84 °C): -3.442
- rel CD (OEP21 [1]; 87 °C): -0.01175
- rel CD (OEP21 [1]; 87.5 °C): 0.006103
- rel CD (OEP21 [1]; 88 °C): 0.001624
- raw CD (OEP21 [1]; 88.5 °C): -3.139
- rel CD (OEP21 [1]; 90 °C): -0.0159
- rel CD (OEP21 [1]; 90.5 °C): -0.01305
- rel CD (OEP21 [1]; 92 °C): 0.001685
- rel CD (OEP21 [1]; 93 °C): -0.01165
- raw CD (OEP21 [1]; 95 °C): -2.644
- rel CD (OEP21 [1]; 97 °C): -0.003556
- raw CD (OEP21 [1]; 98 °C): -2.053
- raw CD (OEP21 [1]; 100 °C): -2.629
- Melting point (OEP21 [1]): 63.08 ｡C
- amide hydrogen exchange rates in L5 in the complex (in words) (OEP21 [5]): reduced
- binding stoichiometry n (OEP21 [2]; ITC, Fig. 3a): 1.14 ± 0.16
- Kd [6]: 0.05 mM and 0.054 mM
- decrease in affinity (OEP21 wt [7]; 50 mM MgCl2 versus 0): ~50 fold
- drop in binding affinity (OEP21 wt [7]; 2 M NaCl versus 0): ~120 fold
- passage through the OEP21 channel (in words) (OEP21 wt [8]): passed through the channel

Compound: O=S1(=O)OC(c2cc(Br)c(O)c(Br)c2)(c2cc(Br)c(O)c(Br)c2)c2ccccc21 [Bromophenol Blue, reference compound]
- Relative content (% of mean Control) (OEP21 wt [8]; Mean): 44.3038 % of mean Control
- Relative content (% of mean Control) (OEP21 wt [8]; single replicates): 45.5696 % of mean Control and 43.6709 % of mean Control (2×)
- passage through the OEP21 channel (in words) (OEP21 wt [8]): lower translocation efficiency

Compound: Nc1ccn([C@@H]2O[C@H](COP(=O)(O)OP(=O)(O)OP(=O)(O)O)[C@@H](O)[C@H]2O)c(=O)n1 [CTP]
- Melting point (OEP21 [1]): 63.71 ｡C
- fold increase in Kd (OEP21 [2]): 1.35
- fold increase in Kd, mean values (OEP21 [2]): 1.35

Compound: Cc1cc2nc3c(=O)[nH]c(=O)nc-3n(C[C@H](O)[C@H](O)[C@H](O)COP(=O)(O)OP(=O)(O)OC[C@H]3O[C@@H](n4cnc5c(N)ncnc54)[C@H](O)[C@@H]3O)c2cc1C [FAD]
- Relative content (% of mean Control) (OEP21 wt [8]; Mean): 46.1734 % of mean Control
- Relative content (% of mean Control) (OEP21 wt [8]; single replicates): 47.6939 % of mean Control and 45.5112 % of mean Control and 45.315 % of mean Control

Compound: Nc1nc2c(ncn2[C@@H]2O[C@H](COP(=O)(O)OP(=O)(O)OP(=O)(O)O)[C@@H](O)[C@H]2O)c(=O)[nH]1 [GTP]
- Melting point (OEP21 [1]): 66.48 ｡C
- fold increase in Kd (OEP21 [2]): 0.59
- fold increase in Kd, mean values (OEP21 [2]): 0.59

Compound: NC(=O)C1=CN([C@@H]2O[C@H](COP(=O)(O)OP(=O)(O)OC[C@H]3O[C@@H](n4cnc5c(N)ncnc54)[C@H](O)[C@@H]3O)[C@@H](O)[C@H]2O)C=CC1 [NADH]
- Melting point (OEP21 [1]): 58.83 ｡C
- Relative content (% of mean Control) (OEP21 wt [8]; Mean): 33.6575 % of mean Control
- Relative content (% of mean Control) (OEP21 wt [8]; single replicates): 33.3345 % of mean Control and 33.6928 % of mean Control and 33.9453 % of mean Control

Compound: NC(=O)C1=CN([C@@H]2O[C@H](COP(=O)(O)OP(=O)(O)OC[C@H]3O[C@@H](n4cnc5c(N)ncnc54)[C@H](OP(=O)(O)O)[C@@H]3O)[C@@H](O)[C@H]2O)C=CC1 [NADPH]
- Melting point (OEP21 [1]): 60.17 ｡C
- Relative content (% of mean Control) (OEP21 wt [8]; Mean): 30.937 % of mean Control
- Relative content (% of mean Control) (OEP21 wt [8]; single replicates): 31.31 % of mean Control and 32.4982 % of mean Control and 29.0027 % of mean Control

Compound: C=C(OP(=O)(O)O)C(=O)O [PEP]
- Melting point (OEP21 [1]): 58.37 ｡C

Compound: O=P(O)(O)O [Phosphate]
- Kd (OEP21 wt [9]; individual determinations KD1-KD12, read-out: Kd): 8.73 mM and 3.66 mM and 15 mM and 9.02 mM and 8.71 mM and 10.4 mM and 5.02 mM and 3.5 mM and 11 mM and 15.9 mM and 20.7 mM and 4.68 mM
- Kd (OEP21 wt [9]; mean, read-out: Kd, mean values): 9.7 mM
- Kd ([6]; listed as Pi): 9 ± 1 mM
- Kd [6]: ~9 mM
- IC50 (OEP21 wt [10]): ~10 mM
- Relative content (% of mean Control) (OEP21 wt [8]; Mean): 13.1637 % of mean Control
- Relative content (% of mean Control) (OEP21 wt [8]; single replicates): 11.8165 % of mean Control and 12.9577 % of mean Control and 14.7171 % of mean Control

Compound: O=c1ccn([C@@H]2O[C@H](COP(=O)(O)OP(=O)(O)OP(=O)(O)O)[C@@H](O)[C@H]2O)c(=O)[nH]1 [UTP]
- Melting point (OEP21 [1]): 63.58 ｡C
- fold increase in Kd (OEP21 [2]): 2.55
- fold increase in Kd, mean values (OEP21 [2]): 2.55

Compound: Vitamin B12
- Relative content (% of mean Control) (OEP21 wt [8]; Mean): 99.2057 % of mean Control
- Relative content (% of mean Control) (OEP21 wt [8]; single replicates): 105.56 % of mean Control and 96.0286 % of mean Control (2×)
- passage through the OEP21 channel (in words) (OEP21 wt [8]): cannot pass

Compound: lysozyme: the ~14-kDa protein lysozyme [reference compound]
- passage through the OEP21 channel (in words) (OEP21 wt [8]): cannot pass
